Common to all, as to format: biochemical
Test [1] deals with T1, procaspase-3 (Homo sapiens, UniProt P42574).
T1 construct: His6 (C); made in house; host or cells: E. coli BL21(DE3)RP, pET-23b
T1 sequence (P42574 1-277): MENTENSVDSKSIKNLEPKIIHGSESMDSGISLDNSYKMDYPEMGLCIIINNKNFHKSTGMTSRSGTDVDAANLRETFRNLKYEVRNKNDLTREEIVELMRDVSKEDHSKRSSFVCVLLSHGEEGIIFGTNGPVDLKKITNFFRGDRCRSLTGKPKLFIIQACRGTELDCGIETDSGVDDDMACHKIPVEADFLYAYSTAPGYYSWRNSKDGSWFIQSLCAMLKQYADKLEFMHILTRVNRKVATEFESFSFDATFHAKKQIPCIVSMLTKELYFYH
Description: Executioner procaspase-3 activation assay (Ac-DEVD-AFC fluorogenic substrate). The settings on record: incubation with compound for 5 h at 37° C.; 100 nM procaspase; read-out: Procaspase Activation 3. The protocol: The executioner procaspase-3, -6 and -7 activation assay protocol involves incubating the target protein at the physiologically-relevant concentration of 100 nM with activating compounds (ranging from 100 nM to 100 uM) in a total volume of 50 μL consisting of a reaction buffer of 50 mM HEPES, pH 7.4, 50 mM KCl, 1 mM DTT and 0.01% Triton-X100 (to reduce false positive hits due to compound aggregation). […] All components of the assay including protein, substrate and inhibitor are stored as frozen aliquots and thawed immediately prior to the assay.

The target of test [2] is T2, procaspase-6 (Homo sapiens, UniProt P55212).
T2 sequence (P55212 1-293): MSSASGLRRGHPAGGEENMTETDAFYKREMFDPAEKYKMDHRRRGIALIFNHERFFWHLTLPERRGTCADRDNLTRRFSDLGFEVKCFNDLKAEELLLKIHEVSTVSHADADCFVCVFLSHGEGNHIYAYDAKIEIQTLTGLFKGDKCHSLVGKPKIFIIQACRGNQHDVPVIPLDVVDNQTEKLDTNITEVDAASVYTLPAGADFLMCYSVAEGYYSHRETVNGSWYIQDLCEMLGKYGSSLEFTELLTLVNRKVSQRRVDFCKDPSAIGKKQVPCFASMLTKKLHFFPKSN
Briefly: Executioner procaspase-6 activation assay (Ac-VEID-AFC fluorogenic substrate). Particulars: incubation with compound for 5 h at 37° C.; 100 nM procaspase. As to the method: (§1) The executioner procaspase-3, -6 and -7 activation assay protocol involves incubating the target protein at the physiologically-relevant concentration of 100 nM with activating compounds (ranging from 100 nM to 100 uM) in a total volume of 50 μL consisting of a reaction buffer of 50 mM HEPES, pH 7.4, 50 mM KCl, 1 mM DTT and 0.01% Triton-X100 (to reduce false positive hits due to compound aggregation). The procaspase/small molecule incubations are then agitated at 37° C. and assayed at various time points by addition of the fluorogenic peptide substrate 7-Amino-4-trifluoromethylcoumarin-DEVD (Ac-DEVD-AFC) (procaspases-3, -7) or Ac-VEID-AFC (procaspase-6) to a final concentration of 25 μM and analyzed by a kinetic 30 minute assay (excitation 365 nm and emission 495 nm). The final concentration of DMSO in each well is 3% and has no effect on enzyme stability or activity. […] All components of the assay including protein, substrate and inhibitor are stored as frozen aliquots and thawed immediately prior to the assay.
(§2) Tables 1 and 2. Procaspase activation as a result of incubation with compound for 5 h at 37° C. (+++ EC50˜0.5-10 μM; ++ EC50˜10-50 μM; + EC50˜50-200 μM; -no activation observed; ND not determined).

For test [3], the target named is T3, procaspase-7 (Homo sapiens, UniProt P55210).
T3 construct: His6 (C); made in house; host or cells: E. coli BL21(DE3)RP, pET-21b
T3 sequence (P55210 1-303): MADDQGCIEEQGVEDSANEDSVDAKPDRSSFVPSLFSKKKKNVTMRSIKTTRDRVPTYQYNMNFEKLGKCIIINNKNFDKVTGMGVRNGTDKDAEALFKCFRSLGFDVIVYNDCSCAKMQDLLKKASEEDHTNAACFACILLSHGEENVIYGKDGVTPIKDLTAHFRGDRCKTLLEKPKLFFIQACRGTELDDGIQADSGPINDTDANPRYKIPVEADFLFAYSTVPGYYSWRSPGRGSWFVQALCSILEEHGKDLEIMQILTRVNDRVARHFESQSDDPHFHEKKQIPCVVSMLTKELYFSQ
Briefly: Executioner procaspase-7 activation assay (Ac-DEVD-AFC fluorogenic substrate). The settings on record: incubation with compound for 5 h at 37° C.; 100 nM procaspase. As to the method: as §1, §2

In the case of `COc1cccc2cc(C(=O)Nc3cccc(-c4cccnc4)c3)c(=O)oc12` [compound 18, 8-Methoxy-2-oxo-2H-chromene-3-carboxylic acid (3-pyridin-3-yl-phenyl)-amide], the EC50 in test [1], in test [2] and in test [3] was > 100 µM in each case.
For the compound `O=C(Nc1cccc(-c2ccc3c(c2)OCO3)c1)c1cc2cccc(O)c2oc1=O` [compound 62, 8-Hydroxy-2-oxo-2H-chromene-3-carboxylic acid (3-Benzo[1,3]dioxol-5-yl-phenyl)-amide], the results for the EC50 in test [1], in test [2] and in test [3] were > 100 µM, > 100 µM and 10 to 50 µM, respectively.
As for `O=C(Nc1cccc(-c2ccncc2)c1)c1cc2cccc(O)c2oc1=O` [compound 19, 8-Hydroxy-2-oxo-2H-chromene-3-carboxylic acid (3-pyridin-4-yl-phenyl)-amide], the EC50 in test [1] was in the range of 0.5 to 10 µM; in test [2] it was 0.5 to 10 µM; in test [3] it was 50 to 200 µM.
Turning to `COc1ccc(OC)c(-c2cccc(NC(=O)c3cc4cccc(O)c4oc3=O)c2)c1` [compound 56, 8-Hydroxy-2-oxo-2H-chromene-3-carboxylic acid (2′,5′-dimethoxy-biphenyl-3-yl)-amide], the EC50 in test [1], in test [2] and in test [3] was > 100 µM in each case.
Turning to `COc1ccc2cc(-c3cccc(NC(=O)c4cc5cccc(O)c5oc4=O)c3)ccc2c1` [compound 77, 8-Hydroxy-2-oxo-2H-chromene-3-carboxylic acid [3-(6-methoxy-naphthalen-2-yl)-phenyl]-amide], the EC50 in test [1] is > 100 µM; in test [2] it was > 100 µM; in test [3], 0.5 to 10 µM.
`O=C(Nc1cccc(-c2ccc3ccccc3c2)c1)c1cc2cccc(OC(F)(F)F)c2oc1=O` [compound 82, 8-Trifluoromethoxy-2-oxo-2H-chromene-3-carboxylic acid (3-Naphthalen-2-yl-phenyl)-amide]: the EC50 in test [1], in test [2] and in test [3] was > 100 µM in each case.
Turning to `COc1cccc2cc(C(=O)Nc3cccc(-c4ccc5nonc5c4)c3)c(=O)oc12` [compound 160, 8-Methoxy-2-oxo-2H-chromene-3-carboxylic acid (3-benzo[1,2,5]oxadiazol-5-yl-phenyl)-amide], the EC50 in test [1], in test [2] and in test [3] was > 100 µM throughout.
With `COc1ncc(-c2cccc(NC(=O)c3cc4cccc(O)c4oc3=O)c2)c(OC)n1` [compound 127, 8-Hydroxy-2-oxo-2H-chromene-3-carboxylic acid [3-(2,4-dimethoxy-pyrimidin-5-yl)-phenyl]-amide], the EC50 in test [1], in test [2] and in test [3] was > 100 µM each time.
As for `CCOc1ncccc1-c1cccc(NC(=O)c2cc3cccc(O)c3oc2=O)c1` [compound 41, 8-Hydroxy-2-oxo-2H-chromene-3-carboxylic acid [3-(2-ethoxy-pyridin-3-yl)-phenyl]-amide], the EC50 in test [1] was 10 to 50 µM; in test [2], 50 to 200 µM; in test [3], > 100 µM.
The like results for `COc1ccc(-c2cccc(NC(=O)c3cc4cccc(OC(F)(F)F)c4oc3=O)c2)cc1OC` [compound 55, 8-Trifluoromethoxy-2-oxo-2H-chromene-3-carboxylic acid (3′,4′-Dimethoxy-biphenyl-3-yl)-amide] were, in that order, > 100 µM, > 100 µM and > 100 µM.
The like results for `N#Cc1ccccc1-c1cccc(NC(=O)c2cc3cccc(O)c3oc2=O)c1` [compound 89, 8-Hydroxy-2-oxo-2H-chromene-3-carboxylic acid (2′-cyano-biphenyl-3-yl)-amide] were, in that order, > 100 µM, > 100 µM and > 100 µM.
In the case of `O=C(Nc1cccc(-c2cn3ccccc3n2)c1)c1cc2ccccc2[nH]c1=O` [compound 181, 2-Oxo-1,2-dihydro-quinoline-3-carboxylic acid (3-imidazo[1,2-a]pyridin-2-yl-phenyl)-amide], the EC50 in test [1] and in test [2] was 10 to 50 µM each time.

The values are drawn from patent US8642788B2, “Activators of executioner procaspases 3, 6 and 7” (The Regents of the University of California, priority 2008, dated 2014).
